The MIC is the lowest concentration that inhibits growth of the organism. Low values mean a more susceptible organism, high ones a less susceptible organism.

The source of these data is article PMC7071076, “Antibacterial Activity and Pharmacokinetic Profile of a Promising Antibacterial Agent: 22-(2-Amino-phenylsulfanyl)-22-Deoxypleuromutilin” (Molecules, 2020).

≈ marks a conversion by molar mass, not a printed value.

Holding throughout (experiment): MIC testing, clinical strain
Assay type in all cases: cell-based
Holding throughout (details): Staphylococcus aureus

In experiment [1] the test system is MRSA N20. The text has this:
(§1) Methicillin-resistant Staphylococcus aureus (MRSA) ATCC 43300, Staphylococcus aureus ATCC 29213, Escherichia coli ATCC 25922, Salmonella typhimurium ATCC 14028, Enterococcus faecalis ATCC 29212, and Enterococcus faecium ATCC 35667 were obtained from the China Institute of Veterinary Drug Control (Beijing, China). Five clinical strains of MRSA (N7, N9, N20, N30, and N54) were isolated from diseased pig tissues of South China Agricultural University and Foshan University Animal Hospital. All clinical strains were identified as MRSA by Gram stain, catalase reaction, coagulase test, staphylococcus API identification system test, MecA gene test, and methicillin MIC test.
(§2) The MIC of amphenmulin against MRSA, Escherichia coli, Salmonella typhimurium, Enterococcus faecalis, and Enterococcus faecium were determined using tiamulin as controls. MIC values were measured by the method of previous work. Staphylococcus aureus ATCC 29213 was used as the quality control bacteria, and the quality control range was referred to the Clinical and Laboratory Standards Institute (CLSI). The bacteria solution was diluted to ~10^6 CFU/mL with Mueller–Hinton (MH) broth for MRSA, Escherichia coli and Salmonella typhimurium while Trypticase Soy Broth for Enterococcus faecalis and Enterococcus faecium. Drugs were dissolved in an aqueous solution of N, N-dimethylformamide (DMF) at a concentration of 2560 µg/mL, and then diluted with broth to prepare working solution (1280 µg/mL). The drug susceptibility testing was performed in 96-well plate. A total of 20 µL of working solution was added into column 1 and well mixed as a 10-fold dilution, following which Serial 2-fold dilutions were prepared to provide concentration ranges of 128–0.0078 µg/mL. Blank broth (no cultures) and bacteria solution (drugs replaced by blank solvent) were set as drug-free controls. Each 96-well plate was cultured at 37 °C for 24 h. The MIC value is the lowest concentration of amphenmulin which inhibits the visible growth of bacteria. The experiment was repeated three times.

For experiment [2], the system named is MRSA N30.
Source text: as §1, §2

Experiment [3] relates to MRSA N54.
Source text: as §1, §2

For experiment [4], the system named is MRSA N7.
Source text: as §1, §2

The subject of experiment [5] is MRSA N9.
Source text: as §1, §2

As to `C=C[C@]1(C)C[C@@H](OC(=O)CSc2ccccc2N)[C@]2(C)[C@H](C)CC[C@]3(CCC(=O)[C@H]32)[C@@H](C)[C@@H]1O` [Amphenmulin, 22-(2-amino-phenylsulfanyl)-22-deoxypleuromutilin], the MIC in experiment [1] stood at 4 µg/mL (≈ 8.24 µM); in experiment [2], 8 µg/mL (≈ 16.5 µM); in experiment [3], 0.0156 µg/mL (≈ 0.0321 µM); in experiment [4], 4 µg/mL (≈ 8.24 µM); in experiment [5], 0.0156 µg/mL (≈ 0.0321 µM).
